Results reported in patent publication US20120101076A1, “CARBONATE DERIVATIVES FOR THE TREATMENT OF COUGH” (priority 2010, published 2012).

Assays:
[1] = test system: guinea pigs (citric acid-induced cough); test: citric acid cough challenge in guinea pigs; format: in vivo, guinea pig; conditions: for percentage (%) reduction of number of coughs / percentage (%) of reduction of number of cough efforts: mean±SEM
Description: Evaluation of the activities of Compound Ia and tiotropium bromide in an animal cough challenge model.
Male Dunkin-Hartley guinea pigs (250-350 g, Charles-River, Italy) were acclimatized in cages, (24±0.5° C.) for 1 week after delivery, with free access to water and standard rodent diet. One group of guinea pigs was actively sensitized by an intra-peritoneal injection of ovalbumin (100 mg/kg) followed by a subcutaneous injection of ovalbumin (100 mg/kg). Controls received the vehicle alone (0.9% NaCl).
After the period of acclimatization to laboratory conditions, animals were individually placed in a transparent perspex box (20×10×10 cm, Vetrotecnica, Italy) ventilated with a constant airflow of 400 ml/minute. A tussive agent (citric acid, 0.25 M) was nebulized via a mini-ultrasonic nebulizer (Ugo Basile, Italy). […] The numbers of elicited cough efforts were counted by a blind observer.
All experiments were carried out at the same time of day, starting at 9.00 a.m. Guinea-pigs received Compound Ia (1 mM) or tiotropium bromide (0.3 mM) or their vehicle (distilled water) for 10 minutes by aerosol at least 3 hour before the citric acid challenge (0.25 M; for 10 minute; by aerosol), in order to elicit cough.
Values are presented as mean±SEM. Comparisons among groups were made by one way analysis of variance (ANOVA) and the Student's t-test or the Bonferroni's test when appropriate. A p value of <0.05 was considered significant.

postviral coughing = conditions: inhaled, relative to placebo; cited from earlier work
[2] = test system: adult nonsmokers with acute viral upper respiratory tract infection; conditions: once daily 18 μg by inhalation for 7 days; cited from earlier work
[3] = test system: ovalbumin-sensitized guinea-pigs; conditions: administered intratracheally; cited from earlier work

O=C(OC(c1cccc(F)c1)c1cccc(F)c1)O[C@H]1C[N+]2(CC(=O)c3cccs3)CCC1CC2.[Cl-] [Compound Ia]
number of cough efforts induced by citric acid (statistical significance) ([1]; 1 mM by aerosol, 3 hours before citric acid 0.25 M): significantly reduced
percentage (%) reduction of number of coughs ([1]; control, non-sensitized animals, 1 mM by aerosol, 3 hours before citric acid 0.25 M): 17.4±6.4%
percentage (%) reduction of number of coughs ([1]; ovalbumin-sensitized animals, 1 mM by aerosol, 3 hours before citric acid 0.25 M): 37.2±5.9%

CC(C)[N+]1(C)[C@@H]2CC[C@H]1C[C@@H](OC(=O)C(CO)c1ccccc1)C2 (stereo partly drawn) [ipratropium bromide]
suppression of subjectively described postviral coughing (postviral coughing): effective

C[N+]1(C)[C@@H]2C[C@@H](OC(=O)C(O)(c3cccs3)c3cccs3)C[C@H]1[C@@H]1O[C@@H]12 [tiotropium bromide]
cough reflex sensitivity to inhaled capsaicin [2]: capable of inhibiting cough reflex sensitivity
number of cough efforts induced by citric acid (statistical significance) ([1]; 0.3 mM by aerosol, 3 hours before, both animal groups): did not reach a statistical significance
percentage (%) of reduction of number of cough efforts ([1]; control animals, 0.3 mM by aerosol, 3 hours before citric acid 0.25 M): 20.2±9.9%
percentage (%) of reduction of number of cough efforts ([1]; ovalbumin-sensitized animals, 0.3 mM by aerosol, 3 hours before citric acid 0.25 M): 28.1±11%
cough elicited by inhalation of citric acid [3]: able to reduce cough
